Molecules are shown by their SMILES. ≈ marks a conversion by molar mass, not a printed value.

Assay in all cases: MIC, microdilution broth method (NCCLS)
What all share (assay type): cell-based
On the technique in general: Dilution methods test growth across graded concentrations, often in twofold steps.

One experiment deals with E. coli OC2605. Particulars: A: E. coli OC2605, 35° C., 16-20 hours. Here is the method:
(§1) Minimal inhibitory concentration (MIC) has been an indicator of in vitro antibacterial activity widely used in the art. The in vitro antimicrobial activity of the compounds was determined by the microdilution broth method following the test method from the National Committee for Clinical Laboratory Standards (NCCLS). This method is described in the NCCLS Document M7-A4, Vol. 17, No. 2, “Methods for Dilution Antimicrobial Susceptibility Test for Bacteria that Grow Aerobically—Fourth Edition”, which is incorporated herein by reference.
(§2) In this method two-fold serial dilutions of drug in cation adjusted Mueller-Hinton broth are added to wells in microdilution trays. The test organisms are prepared by adjusting the turbidity of actively growing broth cultures so that the final concentration of test organism after it is added to the wells is approximately 5×10^4 CFU/well.
(§3) Following inoculation of the microdilution trays, the trays are incubated at 35° C. for 16-20 hours and then read. […] The amount of growth in the wells containing the test compound is compared with the amount of growth in the growth-control wells (no test compound) used in each tray. As set forth in Table 1, compounds of the present invention were tested against a variety of Gram positive and Gram negative pathogenic bacteria resulting in a range of activities depending on the organism tested.

In the next experiment the test system is E. faecalis ATCC29212. Particulars: C: E. faecalis ATCC29212, 35° C., 16-20 hours. The method, then: as §1, §2, §3
The test system of the next experiment is H. influenzae ATCC49247. As to conditions: E: H. influenzae ATCC49247, 35° C., 16-20 hours. Here is the method:
as §1, §2, §3

Another experiment has as its system S. aureus ATCC29213. As to conditions: B: S. aureus ATCC29213, 35° C., 16-20 hours. The method, then: as §1, §2, §3
Another experiment deals with S. pneumoniae ATCC49619. As to conditions: D: S. pneumoniae ATCC49619, 35° C., 16-20 hours. The method, then:
as §1, §2, §3

For the compound `CC[C@H]1OC(=O)[C@H](C)C(=O)[C@H](C)[C@@H](O[C@@H]2O[C@H](C)C[C@H](N(C)C)[C@H]2O)[C@](C)(OC(=O)NCCc2ccccc2)C[C@@H](C)C(=O)[C@H](C)[C@H]2NC(=O)O[C@@]21C` [Compound 3], the MIC was more than 16 µg/mL in the experiment on E. coli OC2605; 1 µg/mL (≈ 1.34 µM) in the experiment on E. faecalis ATCC29212; 8 µg/mL (≈ 10.7 µM) against H. influenzae ATCC49247; 4 µg/mL (≈ 5.36 µM) in the experiment with S. aureus ATCC29213; 0.12 µg/mL (≈ 0.161 µM) against S. pneumoniae ATCC49619.
For `CC[C@H]1OC(=O)[C@H](C)C(=O)[C@H](C)[C@@H](O[C@@H]2O[C@H](C)C[C@H](N(C)C)[C@H]2O)[C@](C)(OC(=O)NC/C=C/c2ccccc2)C[C@@H](C)C(=O)[C@H](C)[C@H]2NC(=O)O[C@@]21C` [Compound 4] the same measures were more than 16 µg/mL, 0.12 µg/mL (≈ 0.158 µM), 1 µg/mL (≈ 1.32 µM), 0.25 µg/mL (≈ 0.33 µM) and 0.03 µg/mL (≈ 0.0396 µM).
In the same order, the values of `CC[C@H]1OC(=O)[C@H](C)C(=O)[C@H](C)[C@@H](O[C@@H]2O[C@H](C)C[C@H](N(C)C)[C@H]2O)[C@](C)(OC(=O)NCc2ccc(-n3cccn3)cc2)C[C@@H](C)C(=O)[C@H](C)[C@H]2NC(=O)O[C@@]21C` [Compound 7] are 16 µg/mL (≈ 20.1 µM), 0.06 µg/mL (≈ 0.0752 µM), 4 µg/mL (≈ 5.01 µM), 0.5 µg/mL (≈ 0.627 µM) and 0.03 µg/mL (≈ 0.0376 µM).
As for `CC[C@H]1OC(=O)[C@H](C)C(=O)[C@H](C)[C@@H](O[C@@H]2O[C@H](C)C[C@H](N(C)C)[C@H]2O)[C@](C)(OC(=O)NCc2ccc(-n3ccnc3)cc2)C[C@@H](C)C(=O)[C@H](C)[C@H]2NC(=O)O[C@@]21C` [Compound 8], the MIC against E. coli OC2605 turned out to be 16 µg/mL (≈ 20.1 µM); in the experiment on E. faecalis ATCC29212 it was 0.12 µg/mL (≈ 0.15 µM); in the experiment with H. influenzae ATCC49247, 4 µg/mL (≈ 5.01 µM); against S. aureus ATCC29213 it was 1 µg/mL (≈ 1.25 µM); with S. pneumoniae ATCC49619, 0.03 µg/mL (≈ 0.0376 µM).
For `CC[C@H]1OC(=O)[C@H](C)C(=O)[C@H](C)[C@@H](O[C@@H]2O[C@H](C)C[C@H](N(C)C)[C@H]2O)[C@](C)(OC(=O)NCCCCc2ccccc2)C[C@@H](C)C(=O)[C@H](C)[C@H]2NC(=O)O[C@@]21C` [Compound 9] the same measures were more than 16 µg/mL, 0.25 µg/mL (≈ 0.323 µM), 16 µg/mL (≈ 20.7 µM), 1 µg/mL (≈ 1.29 µM) and 0.03 µg/mL (≈ 0.0388 µM).
In the same order, the values of `CC[C@H]1OC(=O)[C@H](C)C(=O)[C@H](C)[C@@H](O[C@@H]2O[C@H](C)C[C@H](N(C)C)[C@H]2O)[C@](C)(OC(=O)NCc2ccc(-n3cncn3)cc2)C[C@@H](C)C(=O)[C@H](C)[C@H]2NC(=O)O[C@@]21C` [Compound 10] are 16 µg/mL (≈ 20 µM), 0.25 µg/mL (≈ 0.313 µM), 4 µg/mL (≈ 5.01 µM), 1 µg/mL (≈ 1.25 µM) and 0.03 µg/mL (≈ 0.0375 µM).
In the case of `CC[C@H]1OC(=O)[C@H](C)C(=O)[C@H](C)[C@@H](O[C@@H]2O[C@H](C)C[C@H](N(C)C)[C@H]2O)[C@](C)(OC(=O)N(CC#Cc2ccccc2)CC#Cc2ccccc2)C[C@@H](C)C(=O)[C@H](C)[C@H]2NC(=O)O[C@@]21C` [Compound 11], the MIC was more than 16 µg/mL against E. coli OC2605; 2 µg/mL (≈ 2.3 µM) with E. faecalis ATCC29212; more than 16 µg/mL with H. influenzae ATCC49247; 4 µg/mL (≈ 4.6 µM) with S. aureus ATCC29213; 0.5 µg/mL (≈ 0.575 µM) with S. pneumoniae ATCC49619.
As to `CC[C@H]1OC(=O)[C@H](C)C(=O)[C@H](C)[C@@H](O[C@@H]2O[C@H](C)C[C@H](N(C)C)[C@H]2O)[C@](C)(OC(=O)NCCCc2cccnc2)C[C@@H](C)C(=O)[C@H](C)[C@H]2NC(=O)O[C@@]21C` [Compound 12], the MIC against E. coli OC2605 is 16 µg/mL (≈ 21 µM); against E. faecalis ATCC29212, 0.12 µg/mL (≈ 0.158 µM); against H. influenzae ATCC49247, 4 µg/mL (≈ 5.26 µM); in the experiment on S. aureus ATCC29213, 1 µg/mL (≈ 1.31 µM); with S. pneumoniae ATCC49619, 0.06 µg/mL (≈ 0.0789 µM).
For `CC[C@H]1OC(=O)[C@H](C)C(=O)[C@H](C)[C@@H](O[C@@H]2O[C@H](C)C[C@H](N(C)C)[C@H]2O)[C@](C)(OC(=O)NCC#Cc2ccccc2)C[C@@H](C)C(=O)[C@H](C)[C@H]2NC(=O)O[C@@]21C` [Compound 13] the same measures were more than 16 µg/mL, 0.25 µg/mL (≈ 0.331 µM), 8 µg/mL (≈ 10.6 µM), 1 µg/mL (≈ 1.32 µM) and 0.06 µg/mL (≈ 0.0794 µM).
In the same order, the values of `CC[C@H]1OC(=O)[C@H](C)C(=O)[C@H](C)[C@@H](O[C@@H]2O[C@H](C)C[C@H](N(C)C)[C@H]2O)[C@](C)(OC(=O)NCCCc2ccc(N(C)C)cc2)C[C@@H](C)C(=O)[C@H](C)[C@H]2NC(=O)O[C@@]21C` [Compound 14] are more than 16 µg/mL, 0.5 µg/mL (≈ 0.623 µM), more than 16 µg/mL, 8 µg/mL (≈ 9.96 µM) and 0.12 µg/mL (≈ 0.149 µM).
For `CC[C@H]1OC(=O)[C@H](C)C(=O)[C@H](C)[C@@H](O[C@@H]2O[C@H](C)C[C@H](N(C)C)[C@H]2O)[C@](C)(OC(=O)NC/C=C/c2ccc([N+](=O)[O-])cc2)C[C@@H](C)C(=O)[C@H](C)[C@H]2NC(=O)O[C@@]21C` [Compound 15] the same measures were 4 µg/mL (≈ 4.98 µM), 0.06 µg/mL (≈ 0.0747 µM), 2 µg/mL (≈ 2.49 µM), 0.12 µg/mL (≈ 0.149 µM) and 0.03 µg/mL (≈ 0.0374 µM).
For `CC[C@H]1OC(=O)[C@H](C)C(=O)[C@H](C)[C@@H](O[C@@H]2O[C@H](C)C[C@H](N(C)C)[C@H]2O)[C@](C)(OC(=O)NC/C=C/c2ccc(Br)cc2)C[C@@H](C)C(=O)[C@H](C)[C@H]2NC(=O)O[C@@]21C` [Compound 16], the MIC in the experiment with E. coli OC2605 was 8 µg/mL (≈ 9.56 µM); in the experiment on E. faecalis ATCC29212, 0.12 µg/mL (≈ 0.143 µM); with H. influenzae ATCC49247, 4 µg/mL (≈ 4.78 µM); in the experiment with S. aureus ATCC29213, 0.5 µg/mL (≈ 0.598 µM); in the experiment with S. pneumoniae ATCC49619 it was 0.03 µg/mL (≈ 0.0359 µM).
As to `CC[C@H]1OC(=O)[C@H](C)C(=O)[C@H](C)[C@@H](O[C@@H]2O[C@H](C)C[C@H](N(C)C)[C@H]2O)[C@](C)(OC(=O)NC/C=C/c2ccc(-n3cccn3)cc2)C[C@@H](C)C(=O)[C@H](C)[C@H]2NC(=O)O[C@@]21C` [Compound 18], the MIC with E. coli OC2605 was found to be 16 µg/mL (≈ 19.4 µM); in the experiment on E. faecalis ATCC29212, 0.06 µg/mL (≈ 0.0728 µM); in the experiment with H. influenzae ATCC49247, 4 µg/mL (≈ 4.85 µM); against S. aureus ATCC29213, 0.25 µg/mL (≈ 0.303 µM); in the experiment on S. pneumoniae ATCC49619 it was 0.03 µg/mL (≈ 0.0364 µM).
Turning to `CC[C@H]1OC(=O)[C@H](C)C(=O)[C@H](C)[C@@H](O[C@@H]2O[C@H](C)C[C@H](N(C)C)[C@H]2O)[C@](C)(OC(=O)NC/C=C/c2ccc(-c3ccccn3)cc2)C[C@@H](C)C(=O)[C@H](C)[C@H]2NC(=O)O[C@@]21C` [Compound 19], the MIC with E. coli OC2605 was determined as 16 µg/mL (≈ 19.2 µM); in the experiment on E. faecalis ATCC29212, 0.12 µg/mL (≈ 0.144 µM); with H. influenzae ATCC49247, 4 µg/mL (≈ 4.79 µM); with S. aureus ATCC29213, 0.12 µg/mL (≈ 0.144 µM); against S. pneumoniae ATCC49619, 0.03 µg/mL (≈ 0.0359 µM).
`CC[C@H]1OC(=O)[C@H](C)C(=O)[C@H](C)[C@@H](O[C@@H]2O[C@H](C)C[C@H](N(C)C)[C@H]2O)[C@](C)(OC(=O)NC/C=C/c2ccc(-n3cncn3)cc2)C[C@@H](C)C(=O)[C@H](C)[C@H]2NC(=O)O[C@@]21C` [Compound 20]: the MIC against E. coli OC2605 was found to be 16 µg/mL (≈ 19.4 µM); in the experiment with E. faecalis ATCC29212, 0.06 µg/mL (≈ 0.0727 µM); in the experiment on H. influenzae ATCC49247, 4 µg/mL (≈ 4.85 µM); against S. aureus ATCC29213, 0.12 µg/mL (≈ 0.145 µM); in the experiment on S. pneumoniae ATCC49619, 0.03 µg/mL (≈ 0.0364 µM).
For `CC[C@H]1OC(=O)[C@H](C)C(=O)[C@H](C)[C@@H](O[C@@H]2O[C@H](C)C[C@H](N(C)C)[C@H]2O)[C@](C)(OC(=O)NC/C(C)=C/c2ccccc2)C[C@@H](C)C(=O)[C@H](C)[C@H]2NC(=O)O[C@@]21C` [Compound 21] the same measures were more than 16 µg/mL, 0.25 µg/mL (≈ 0.324 µM), 4 µg/mL (≈ 5.18 µM), 0.5 µg/mL (≈ 0.648 µM) and 0.06 µg/mL (≈ 0.0777 µM).
In the same order, the values of `CC[C@H]1OC(=O)[C@H](C)C(=O)[C@H](C)[C@@H](O[C@@H]2O[C@H](C)C[C@H](N(C)C)[C@H]2O)[C@](C)(OC(=O)NC/C=C/c2ccc(-n3ccnc3)cc2)C[C@@H](C)C(=O)[C@H](C)[C@H]2NC(=O)O[C@@]21C` [Compound 22] are 8 µg/mL (≈ 9.71 µM), 0.06 µg/mL (≈ 0.0728 µM), 2 µg/mL (≈ 2.43 µM), 0.25 µg/mL (≈ 0.303 µM) and 0.03 µg/mL (≈ 0.0364 µM).
Consider `CC[C@H]1OC(=O)[C@H](C)C(=O)[C@H](C)[C@@H](O[C@@H]2O[C@H](C)C[C@H](N(C)C)[C@H]2O)[C@](C)(OC(=O)NC/C=C/c2ccc(-c3cccnc3)cc2)C[C@@H](C)C(=O)[C@H](C)[C@H]2NC(=O)O[C@@]21C` [Compound 23], for which the MIC was determined as 16 µg/mL (≈ 19.2 µM) against E. coli OC2605; 0.12 µg/mL (≈ 0.144 µM) with E. faecalis ATCC29212; 2 µg/mL (≈ 2.4 µM) in the experiment with H. influenzae ATCC49247; 0.25 µg/mL (≈ 0.299 µM) in the experiment with S. aureus ATCC29213; 0.06 µg/mL (≈ 0.0719 µM) in the experiment on S. pneumoniae ATCC49619.

For the origin of these results see patent US6613747B2, “6-O-carbamoyl ketolide antibacterials” (Ortho-McNeil Pharmaceutical, Inc., priority 2000, dated 2003).
